In patent publication US9403866B2, “Compositions and methods for increasing telomerase activity” (Telomerase Activation Sciences, Inc., priority 2009, dated 2016):
Where two headings read alike, the source gives them in different places.

Experiments:
lung fibroblasts [1] = test: Long-term culture of lung fibroblasts; assay type: cell-based, human
[2] = Plasma levels and bioavailability in rats; conditions: male, Sprague Dawley, rat, in vivo, po, 10 mg/kg
Protocol: (§1) The plasma levels of a compound following a single intravenous and oral administration in carotid artery-cannulated male Sprague Dawley rats was determined. Plasma samples were collected and used to determine the plasma concentration of the compound and metabolites. In addition tissue samples, including whisker samples and PBMC cells were collected for telomerase activity analysis.
(§2) Carotid artery-cannulated male Sprague Dawley rats were divided into treatment groups according to Table 6. The rats were provided ad libitum SLAC-MO1 # YY080208 (Shanghai Laboratories Animal Center, Shanghai, China) throughout the in-life portion of the study with the exception of the overnight fasting period prior to oral dosing. Water was available ad libitum.
The compounds were dissolved in 2% EtOH/98% water to yield a final concentration of 2.5 mg/ml and 1 mg/ml for both intravenous and oral administration, respectively. The concentration of each compound was confirmed by HPLC analysis.
Body weights were taken on the day of dose administration. Dose volume was determined based on individual body weight taken on day of dosing.
(§3) Blood samples (approximately 250 μL) were collected via cannulae into tubes containing K2-EDTA anticoagulant and 1 mg/ml NaF at the various time points. Blood was stored on ice and then plasma separated via centrifugation (8000 rpm×6 minutes). The plasma was stored at […] until LC-MS/MS analysis.
Percentage of bioavailability was calculated.

telomerase [3] = target: T1, telomerase (Mus musculus, UniProt O70372); test: Telomerase activity in short-term liquid culture, lineage-depleted bone marrow cells from mTERT heterozygous mice; assay type: cell-based; conditions: 1 uM, three days
T1 construct: endogenous in cells; host or cells: lineage-depleted bone marrow cells, wild-type mice
T1 sequence (O70372 1-1122): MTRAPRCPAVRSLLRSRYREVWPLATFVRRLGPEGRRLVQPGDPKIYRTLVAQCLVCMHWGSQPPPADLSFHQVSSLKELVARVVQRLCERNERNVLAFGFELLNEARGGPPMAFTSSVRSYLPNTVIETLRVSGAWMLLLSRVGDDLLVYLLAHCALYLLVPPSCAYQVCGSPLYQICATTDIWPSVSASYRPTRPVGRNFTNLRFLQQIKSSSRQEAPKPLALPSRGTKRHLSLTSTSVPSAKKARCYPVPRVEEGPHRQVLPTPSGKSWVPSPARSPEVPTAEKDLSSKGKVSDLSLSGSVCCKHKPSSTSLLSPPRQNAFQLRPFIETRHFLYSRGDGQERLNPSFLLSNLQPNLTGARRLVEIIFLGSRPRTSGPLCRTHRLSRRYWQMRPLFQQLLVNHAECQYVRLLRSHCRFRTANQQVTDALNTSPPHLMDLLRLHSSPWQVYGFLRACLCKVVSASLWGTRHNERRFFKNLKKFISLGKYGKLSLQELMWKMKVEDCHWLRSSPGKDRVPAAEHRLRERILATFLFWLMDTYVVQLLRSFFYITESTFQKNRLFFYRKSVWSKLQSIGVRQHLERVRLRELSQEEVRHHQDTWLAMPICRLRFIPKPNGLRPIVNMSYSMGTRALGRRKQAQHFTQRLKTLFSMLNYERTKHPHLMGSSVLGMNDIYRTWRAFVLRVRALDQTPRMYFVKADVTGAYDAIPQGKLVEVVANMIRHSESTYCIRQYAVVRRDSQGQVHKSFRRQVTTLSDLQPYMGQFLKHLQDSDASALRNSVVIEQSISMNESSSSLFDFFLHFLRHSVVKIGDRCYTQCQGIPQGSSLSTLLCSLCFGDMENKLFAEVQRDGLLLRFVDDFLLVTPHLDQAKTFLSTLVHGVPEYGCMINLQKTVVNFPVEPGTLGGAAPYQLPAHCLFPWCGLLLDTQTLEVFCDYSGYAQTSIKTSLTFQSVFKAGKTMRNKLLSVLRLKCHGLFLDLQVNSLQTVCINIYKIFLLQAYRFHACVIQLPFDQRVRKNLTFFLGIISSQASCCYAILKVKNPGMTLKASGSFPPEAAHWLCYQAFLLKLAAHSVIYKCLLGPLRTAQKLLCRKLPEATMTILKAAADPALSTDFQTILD
Protocol: (§4) Lineage-depleted bone marrow cells from mTERT heterozygous and wild type mice were grown in IMDM+15% FBS containing stem cell factor (Kitl), IL-3, and IL-11 for three days in the presence of compound 4 (1 uM, 100 nM, or 10 nM), vehicle (0.1% DMSO), or nothing. Telomerase activity in the wild-type cells increased by 40-50% when treated with 100 nM and 1 uM compound 4, relative to the vehicle-treated control.
Telomerase activity in the mTERT heterozygous cells increased by 50% when treated with 1 uM compound 4, relative to the vehicle-treated control.

lung fibroblasts [4] = test: Alamar Blue Proliferation Assay in lung fibroblasts; assay type: cell-based, human; conditions: 3 days
Protocol: Human SAECs or human fibroblasts were grown in the presence of different concentrations of compound 4 in a final concentration of 1% DMSO in the medium. After 3 days the cells were harvested and proliferation was measured using the Alamar Blue Proliferation Assay.

telomerase [5] = target: telomerase (Homo sapiens, UniProt O14746); test: Keratinocyte cell/TRAP assay (HEKneo-P cells); assay type: cell-based; parameters: host or cells: HEKneo-P (pooled neonatal human epidermal keratinocytes); conditions: telomerase activation
Sequence of telomerase (Homo sapiens, UniProt O14746) (O14746 whole entry): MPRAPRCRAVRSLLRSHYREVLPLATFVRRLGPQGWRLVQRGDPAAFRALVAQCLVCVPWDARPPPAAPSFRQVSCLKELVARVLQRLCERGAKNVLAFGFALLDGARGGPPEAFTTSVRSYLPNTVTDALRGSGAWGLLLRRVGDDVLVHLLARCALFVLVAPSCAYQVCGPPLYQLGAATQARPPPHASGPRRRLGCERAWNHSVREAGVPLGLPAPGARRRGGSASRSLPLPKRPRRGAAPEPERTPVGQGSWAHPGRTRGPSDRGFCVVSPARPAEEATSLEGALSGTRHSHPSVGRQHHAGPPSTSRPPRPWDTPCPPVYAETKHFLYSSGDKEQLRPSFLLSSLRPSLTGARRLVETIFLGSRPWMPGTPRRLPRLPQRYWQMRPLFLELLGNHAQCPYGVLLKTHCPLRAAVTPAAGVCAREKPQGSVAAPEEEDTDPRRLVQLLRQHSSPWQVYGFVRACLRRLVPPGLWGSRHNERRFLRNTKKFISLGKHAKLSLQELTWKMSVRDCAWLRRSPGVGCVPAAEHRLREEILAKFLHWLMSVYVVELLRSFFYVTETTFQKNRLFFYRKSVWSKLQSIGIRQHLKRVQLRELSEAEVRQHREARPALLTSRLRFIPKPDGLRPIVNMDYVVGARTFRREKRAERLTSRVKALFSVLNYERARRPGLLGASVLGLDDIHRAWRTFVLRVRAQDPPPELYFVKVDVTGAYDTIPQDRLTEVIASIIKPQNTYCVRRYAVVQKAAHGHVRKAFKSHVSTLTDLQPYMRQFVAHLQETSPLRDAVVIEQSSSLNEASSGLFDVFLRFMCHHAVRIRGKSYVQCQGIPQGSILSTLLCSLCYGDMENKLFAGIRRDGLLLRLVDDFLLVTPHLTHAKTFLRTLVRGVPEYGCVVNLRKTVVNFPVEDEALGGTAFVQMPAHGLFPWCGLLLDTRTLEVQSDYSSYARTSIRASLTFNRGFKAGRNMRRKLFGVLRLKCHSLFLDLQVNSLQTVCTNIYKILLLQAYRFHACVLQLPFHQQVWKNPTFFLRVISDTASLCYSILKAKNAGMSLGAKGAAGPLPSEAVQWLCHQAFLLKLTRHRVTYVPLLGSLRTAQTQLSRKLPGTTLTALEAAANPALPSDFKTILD
Text: Harley et al., U.S. Pat. […] Harley et al., U.S. Pat. […] Non-treatment control (NT) was also included. […]

[6] = parameters: species or system male Beagle dogs; conditions: male, Beagle, dog, in vivo, po, 10 mg/kg
Protocol: as §1, with “level” for “levels”, “in” for “in carotid artery-cannulated”, “Beagle dogs” for “Sprague Dawley rats”
as §2, with “Male Beagle dogs” for “Carotid artery-cannulated male Sprague Dawley rats”, “5.” for “6.”, “dogs” for “rats”, “#W080701” for “# YY080208”
The compounds were dissolved in 2% EtOH/98% water […] to yield a final concentration of 2.5 mg/ml and 1 mg/ml for both intravenous and oral administration, respectively. The concentration of each compound was confirmed by HPLC analysis.
Doses were administered intravenously via the left femoral vein and then by oral dosing one week later. Body weights were taken on the day of dose administration. Dose volume was determined based on individual body weight taken on day of dosing.
as §3, with “right femoral vein” for “cannulae”, “appropriate” for “the various”

telomerase [7] = target: T1, telomerase; test: Telomerase activity in short-term liquid culture, lineage-depleted bone marrow cells from wild type mice; assay type: cell-based; conditions: 100 nM and 1 uM, three days
Protocol: as §4

## CC(C)C(N)C(=O)OC1CCC23CC24CCC2(C)C(C5(C)CCC(C(C)(C)O)O5)C(O)CC2(C)C4CC(O)C3C1(C)C (stereo not drawn) [Compound 4, 2-(L)-Amino-3-methyl-butyric acid 6α,16β-dihydroxy-17-[5-(1-hydroxy-1-methyl-ethyl)-2-methyl-tetrahydro-furan-2-yl]-4,4,13,14-tetramethyl-tetradecahydro-cyclopropa[9,10]cyclopenta[a]phenanthren-3β-yl ester]
Lung fibroblasts [1]
  effect in long-term culture: No effect
[2]
  Bioavailability % F: 36%
Telomerase [3]
  Telomerase activity increase relative to the vehicle-treated control: 50%
Lung fibroblasts [4]
  effect on short-term proliferation: No effect
Telomerase [5]
  EC50: 0.006 to 0.022 µM
[6]
  Bioavailability % F: 47%
Telomerase [7]
  Telomerase activity increase relative to the vehicle-treated control: 40-50%
